Experiments:
[1] = test system: ECG (electrocardiogram) parameters of guinea pigs; assay: Safety pharmacology study of the cardiovascular system: ECG parameters under anesthesia; format: in vivo; settings: for effect on the cardiovascular system / ECG parameters: guinea pigs under anesthesia, continuous intravenous administration
Protocol: Test 3. […] Evaluation of ECG of guinea pigs was conducted under anesthesia with intra-abdominal administration of a mixed solution of urethane and α-chloralose. Guinea pigs under anesthesia were retained in a supine position, and a right cervical vein was exposed to […] cannula. […] QRS interval and QTc interval are shown as rates of change (%) by similar equations.

SNL model rats = assay: Analgesic effect in a fifth lumbar nerve ligation (SNL) model, von Frey test; format: in vivo, Wistar rats; settings: for extension range of reaction thresholds ± standard error (50% paw withdrawal threshold, after minus before administration): about 10 mg formulation on footpad for 1 hour, evaluated another 1 hour after removal, n=9; for extension range of reaction thresholds compared with the vehicle group: about 10 mg formulation on footpad, versus vehicle (Control example 1)
Protocol: Test 2. […] A SNL model was prepared by a method of Kim and Chung (Pain 50, 355-363, 1992) with partial modification thereof. Specifically, male 5-week-old Wistar rats were anesthetized with pentobarbital and isoflurane inhalation, and under anesthesia, an unilateral fifth lumber nerve was exposed. Then, the fifth lumber nerve was ligated with a silk surgical suture to obtain a SNL model. Evaluation of the analgesic effect was conducted with the von Frey test. Specifically, an animal was poked with a von Frey hair on a footpad in a hind limb of an animal at the side of operation. Reaction thresholds (50% paw withdrawal thresholds) to mechanical stimulation were calculated with a formula according to a method of Chaplan (Journal of Neuroscience Methods 53, 55-63, 1994). […] Reaction thresholds were measured on one and two days before the evaluation of test compounds, and an average of the measured values was determined as the reaction threshold before administration of test compounds. […] One day after the division into groups, test compounds were administered. […] Administration of a test compound was carried out by application of about 10 mg of each formulation on a medical adhesive film, and attachment of the film to a footpad of a SNL rat at the side of operation under anesthesia with isoflurane inhalation. One hour after the application, the film was removed, and another one hour after, reaction thresholds after administration of the test compound were evaluated. After the evaluation, blood was immediately collected from a cervical vein, and the concentration of the test compound in plasma was measured. The efficacy of the analgesic effect of a test compound is shown as an extension range of reaction thresholds±standard error (g) by the following formula: (Reaction threshold after administration of a test compound)−(Reaction threshold before administration of a test compound).

[2] = Concentration of the test compound in plasma after evaluation in SNL rats; format: in vivo; settings: Wistar, rat, topical about 10 mg formulation, blood collected immediately after evaluation (2 hours after application)
Protocol: One day after the division into groups, test compounds were administered. […] Administration of a test compound was carried out by application of about 10 mg of each formulation on a medical adhesive film, and attachment of the film to a footpad of a SNL rat at the side of operation under anesthesia with isoflurane inhalation. One hour after the application, the film was removed, and another one hour after, reaction thresholds after administration of the test compound were evaluated. After the evaluation, blood was immediately collected from a cervical vein, and the concentration of the test compound in plasma was measured.

[3] = Concentration in plasma during continuous intravenous administration in guinea pigs; format: in vivo; settings: dose of 30 mg/kg continuous intravenous for 30 minutes
Protocol: Evaluation of ECG of guinea pigs was conducted under anesthesia with intra-abdominal administration of a mixed solution of urethane and α-chloralose. Guinea pigs under anesthesia were retained in a supine position, and a right cervical vein was exposed to […] cannula. […] QRS interval and QTc interval are shown as rates of change (%) by similar equations.

[4] = 30 mg/kg continuous intravenous for 30 minutes, at 30 minutes after administration
[5] = 15 mg/kg continuous intravenous for 30 minutes, at 30 minutes after administration

Structure (SMILES)	rates of change of each ECG parameter compared with the vehicle group ([1]; 30 mg/kg continuous intravenous for 30 minutes)	PR interval rate of change (prolonged) [1, 4] [%]	QRS interval rate of change (prolonged) [1, 4] [%]	QTc interval rate of change (prolonged) [1, 4] [%]	plasma concentration without effect on the cardiovascular system relative to that at which the analgesic effect appeared ([1]; guinea pig maximum plasma concentration at 30 mg/kg versus SNL rat plasma concentration)	effect on the cardiovascular system / ECG parameters [1]	difference between extension ranges of reaction thresholds of Compound A and lidocaine groups (SNL model rats; Example 1 ointment versus 5% lidocaine ointment)	extension range of reaction thresholds ± standard error (50% paw withdrawal threshold, after minus before administration) (SNL model rats) [g]	extension range of reaction thresholds compared with the vehicle group (SNL model rats)	concentration at 2 h [2] [ng/mL]	maximum concentration in plasma [3] [µg/mL]	PR interval rate of change (prolonged) [1, 5] [%]	QRS interval rate of change (prolonged) [1, 5] [%]
CCn1c(CN[C@@H](C)C(N)=O)nc2ccc(Oc3ccc(C)cc3)cc21 [Compound A, N^2-{[1-ethyl-6-(4-methylphenoxy)-1H-benzimidazol-2-yl]methyl}-L-alaninamide]	no statistically significant difference	22.3	10.3	9.0	about 670 times	not observed until the dose rose to 30 mg/kg	no statistically significant difference	2.2 ± 0.56	statistically significantly increased	25.2	16.9	–	–
CCN(CC)CC(=O)Nc1c(C)cccc1C [lidocaine, reference compound]	–	–	–	–	–	observed at a dose of 15 mg/kg	–	4.1 ± 0.62	statistically significantly increased	–	–	35.1	44.5

— patent US11925621B2, “Medicinal preparation for external use” (Sumitomo Pharma Co., Ltd., priority 2018, dated 2024)
